{
  "source": "patent US9499550B2",
  "about": "(BRISTOL-MYERS SQUIBB COMPANY, priority 2012, dated 2016)",
  "key": {"[1]": {"test_system": "HCV genotype 1b (Con1) replicon in HUH-7 cells", "assay": "HCV replicon luciferase reporter assay, genotype 1b", "format": "cell-based", "conditions": "HCV genotype 1b replicon luciferase, 3 days incubation", "procedure,_shortened": "(§1)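 Replicon inhibition for both genotypes was measured as Renilla luciferase signal (EnduRen, 7.5 μM final, 2 h) after 3-day, 37° C exposure of replicon-bearing HUH-7 cells in 4% FCS DMEM, 0.5% DMSO. The 1b construct carries S1179I; the 1a H77 construct carries P1496L and S2204I. Twenty-point, 3-fold dilutions were fitted four-parametrically for EC50, and CC50 was taken from multiplexed Cell Titer-Blue.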"}, "[2]": {"test_system": "HCV genotype 1a (H77 strain) replicon in HUH-7 cells", "assay": "HCV replicon luciferase reporter assay, genotype 1a", "format": "cell-based", "conditions": "HCV genotype 1a replicon luciferase, 3 days incubation", "procedure,_shortened": "as §1"}, "[3]": {"conditions": "Hepatitis C virus, Huh-7, 72 h, read-out: LE_1b (EC50, range)"}, "[4]": {"conditions": "Hepatitis C virus, Huh-7, 72 h, read-out: LE_1a (EC50, range)"}},
  "note": "Read-outs that look alike come from different tables or passages of the source.",
  "data": [
    {"smiles": "CC[C@@H]1C[C@H](C)CC/C=C\\[C@@H]2C[C@@]2(C(=O)NS(=O)(=O)C2CC2)NC(=O)[C@@H]2C[C@@H](Oc3nccc4c5c(ccc34)N(C)CCO5)CN2C(=O)[C@H]1NC(=O)C(=O)N(C)C", "note": "[Compound 5318, N1-((2R,6S,7R,9R,13aS,14aR,16aS,Z)-14a-((cyclopropylsulfonyl)carbamoyl)-7-ethyl-9-methyl-2-((4-methyl-3,4-dihydro-2H-[1,4]oxazino[2,3-f]isoquinolin-7-yl)oxy)-5,16-dioxo-1,2,3,5,6,7,8,9,10,11,13a,14,14a,15,16,16a-hexadecahydrocyclopropa[e]pyrrolo[1,2-a][1,4]diazacyclopentadecin-6-yl)-N2,N2-dimethyloxalamide]", "values": [
      {"measurement": "EC50", "setting": "[1]; [3]", "result": "< 5.46", "unit": "nM"},
      {"measurement": "EC50", "setting": "[2]; [4]", "result": "< 5.46", "unit": "nM"}
    ]},
    {"smiles": "CC[C@@H]1C[C@@H](C)CC/C=C\\[C@@H]2C[C@@]2(C(=O)NS(=O)(=O)C2(CF)CC2)NC(=O)[C@@H]2C[C@@H](Oc3nccc4c5c(ccc34)N(C)CCO5)CN2C(=O)[C@H]1NC(=O)OC(C)(C)C(F)(F)F", "note": "[Compound 5319, 1,1,1-trifluoro-2-methylpropan-2-yl((2R,6S,7R,9S,13aS,14aR,16aS,Z)-7-ethyl-14a-(((1-(fluoromethyl)cyclopropyl)sulfonyl)carbamoyl)-9-methyl-2-((4-methyl-3,4-dihydro-2H-[1,4]oxazino[2,3-f]isoquinolin-7-yl)oxy)-5,16-dioxo-1,2,3,5,6,7,8,9,10,11,13a,14,14a,15,16,16a-hexadecahydrocyclopropa[e]pyrrolo[1,2-a][1,4]diazacyclopentadecin-6-yl)carbamate]", "values": [
      {"measurement": "EC50", "setting": "[1]; read-out: LE_1b (EC50)", "result": 14.2, "unit": "nM"},
      {"measurement": "EC50", "setting": "[2]; read-out: LE_1a (EC50)", "result": 33.6, "unit": "nM"}
    ]},
    {"smiles": "C[C@H]1CC/C=C\\[C@@H]2C[C@@]2(C(=O)NS(=O)(=O)C2(CF)CC2)NC(=O)[C@@H]2C[C@@H](Oc3nccc4c5c(ccc34)OCCO5)CN2C(=O)[C@@H](NC(=O)OC(C)(C)C(F)(F)F)[C@H](C)C1", "note": "[Compound 5322, 1,1,1-trifluoro-2-methylpropan-2-yl((2R,6S,7R,9S,13aS,14aR,16aS,Z)-2-((2,3-dihydro-[1,4]dioxino[2,3-f]isoquinolin-7-yl)oxy)-14a-(((1-(fluoromethyl)cyclopropyl)sulfonyl)carbamoyl)-7,9-dimethyl-5,16-dioxo-1,2,3,5,6,7,8,9,10,11,13a,14,14a,15,16,16a-hexadecahydrocyclopropa[e]pyrrolo[1,2-a][1,4]diazacyclopentadecin-6-yl)carbamate]", "values": [
      {"measurement": "EC50", "setting": "[1]; [3]", "result": "< 5.46", "unit": "nM"},
      {"measurement": "EC50", "setting": "[2]; [4]", "result": "< 5.46", "unit": "nM"}
    ]},
    {"smiles": "C[C@@H]1CC/C=C\\[C@@H]2C[C@@]2(C(=O)NS(=O)(=O)C2(CF)CC2)NC(=O)[C@@H]2C[C@@H](Oc3nccc4c5c(ccc34)OCCO5)CN2C(=O)[C@@H](NC(=O)OC(C)(C)C(F)(F)F)[C@H](C)C1", "note": "[Compound 5323, 1,1,1-trifluoro-2-methylpropan-2-yl((2R,6S,7R,9R,13aS,14aR,16aS,Z)-2-((2,3-dihydro-[1,4]dioxino[2,3-f]isoquinolin-7-yl)oxy)-14a-(((1-(fluoromethyl)cyclopropyl)sulfonyl)carbamoyl)-7,9-dimethyl-5,16-dioxo-1,2,3,5,6,7,8,9,10,11,13a,14,14a,15,16,16a-hexadecahydrocyclopropa[e]pyrrolo[1,2-a][1,4]diazacyclopentadecin-6-yl)carbamate]", "values": [
      {"measurement": "EC50", "setting": "[1]; [3]", "result": "< 5.46", "unit": "nM"},
      {"measurement": "EC50", "setting": "[2]; [4]", "result": "< 5.46", "unit": "nM"}
    ]},
    {"smiles": "CC[C@@H]1C[C@H](C)CC/C=C\\[C@@H]2C[C@@]2(C(=O)NS(=O)(=O)C2(C)CC2)NC(=O)[C@@H]2C[C@@H](Oc3nccc4c5c(ccc34)N(C)CCO5)CN2C(=O)[C@H]1NC(=O)OC(C)(C)C(F)(F)F", "note": "[Compound 5326, 1,1,1-trifluoro-2-methylpropan-2-yl((2R,6S,7R,9R,13aS,14aR,16aS,Z)-7-ethyl-9-methyl-2-((4-methyl-3,4-dihydro-2H-[1,4]oxazino[2,3-f]isoquinolin-7-yl)oxy)-14a-(((1-methylcyclopropyl)sulfonyl)carbamoyl)-5,16-dioxo-1,2,3,5,6,7,8,9,10,11,13a,14,14a,15,16,16a-hexadecahydrocyclopropa[e]pyrrolo[1,2-a][1,4]diazacyclopentadecin-6-yl)carbamate]", "values": [
      {"measurement": "EC50", "setting": "[1]; [3]", "result": "< 5.46", "unit": "nM"},
      {"measurement": "EC50", "setting": "[2]; [4]", "result": "< 5.46", "unit": "nM"}
    ]},
    {"smiles": "CC[C@@H]1C[C@H](C)CC/C=C\\[C@@H]2C[C@@]2(C(=O)NS(=O)(=O)C2(C)CC2)NC(=O)[C@@H]2C[C@@H](Oc3nccc4c5c(ccc34)N(C)CCO5)CN2C(=O)[C@H]1NC(=O)OC(C)(C)C(C)(F)F", "note": "[Compound 5328, 3,3-difluoro-2-methylbutan-2-yl((2R,6S,7R,9R,13aS,14aR,16aS,Z)-7-ethyl-9-methyl-2-((4-methyl-3,4-dihydro-2H-[1,4]oxazino[2,3-f]isoquinolin-7-yl)oxy)-14a-(((1-methylcyclopropyl)sulfonyl)carbamoyl)-5,16-dioxo-1,2,3,5,6,7,8,9,10,11,13a,14,14a,15,16,16a-hexadecahydrocyclopropa[e]pyrrolo[1,2-a][1,4]diazacyclopentadecin-6-yl)carbamate]", "values": [
      {"measurement": "EC50", "setting": "[1]; [3]", "result": "< 5.46", "unit": "nM"},
      {"measurement": "EC50", "setting": "[2]; [4]", "result": "< 5.46", "unit": "nM"}
    ]},
    {"smiles": "CC[C@@H]1C[C@H](C)CC/C=C\\[C@@H]2C[C@@]2(C(=O)NS(=O)(=O)C2(C)CC2)NC(=O)[C@@H]2C[C@@H](Oc3nccc4c5c(ccc34)N(C)CCO5)CN2C(=O)[C@H]1NC(=O)OC(C)(C)C", "note": "[Compound 5330, tert-butyl ((2R,6S,7R,9R,13aS,14aR,16aS,Z)-7-ethyl-9-methyl-2-((4-methyl-3,4-dihydro-2H-[1,4]oxazino[2,3-f]isoquinolin-7-yl)oxy)-14a-(((1-methylcyclopropyl)sulfonyl)carbamoyl)-5,16-dioxo-1,2,3,5,6,7,8,9,10,11,13a,14,14a,15,16,16a-hexadecahydrocyclopropa[e]pyrrolo[1,2-a][1,4]diazacyclopentadecin-6-yl)carbamate]", "values": [
      {"measurement": "EC50", "setting": "[1]; [3]", "result": "< 5.46", "unit": "nM"},
      {"measurement": "EC50", "setting": "[2]; [4]", "result": "< 5.46", "unit": "nM"}
    ]},
    {"smiles": "CC[C@@H]1C[C@@H](C)CC/C=C\\[C@@H]2C[C@@]2(C(=O)NS(=O)(=O)C2(C)CC2)NC(=O)[C@@H]2C[C@@H](Oc3nccc4c5c(ccc34)OCCO5)CN2C(=O)[C@H]1NC(=O)OC(C)(C)C(C)(F)F", "note": "[Compound 5331, 3,3-difluoro-2-methylbutan-2-yl((2R,6S,7R,9S,13aS,14aR,16aS,Z)-2-((2,3-dihydro-[1,4]dioxino[2,3-f]isoquinolin-7-yl)oxy)-7-ethyl-9-methyl-14a-(((1-methylcyclopropyl)sulfonyl)carbamoyl)-5,16-dioxo-1,2,3,5,6,7,8,9,10,11,13a,14,14a,15,16,16a-hexadecahydrocyclopropa[e]pyrrolo[1,2-a][1,4]diazacyclopentadecin-6-yl)carbamate]", "values": [
      {"measurement": "EC50", "setting": "[1]; Hepatitis C virus, Huh-7, 72 h, read-out: LE_1b (EC50)", "result": 3.94, "unit": "nM"},
      {"measurement": "EC50", "setting": "[1]; [3]", "result": "< 5.46", "unit": "nM"},
      {"measurement": "EC50", "setting": "[2]; Hepatitis C virus, Huh-7, 72 h, read-out: LE_1a (EC50)", "result": 12.8, "unit": "nM"},
      {"measurement": "EC50", "setting": "[2]; [4]", "result": "4.82 to 103", "unit": "nM"}
    ]},
    {"smiles": "CC[C@@H]1C[C@H](C)CC/C=C\\[C@@H]2C[C@@]2(C(=O)NS(=O)(=O)C2(C)CC2)NC(=O)[C@@H]2C[C@@H](Oc3nccc4c5c(ccc34)OCCO5)CN2C(=O)[C@H]1NC(=O)OC(C)(C)C(C)(F)F", "note": "[Compound 5332, 3,3-difluoro-2-methylbutan-2-yl((2R,6S,7R,9R,13aS,14aR,16aS,Z)-2-((2,3-dihydro-[1,4]dioxino[2,3-f]isoquinolin-7-yl)oxy)-7-ethyl-9-methyl-14a-(((1-methylcyclopropyl)sulfonyl)carbamoyl)-5,16-dioxo-1,2,3,5,6,7,8,9,10,11,13a,14,14a,15,16,16a-hexadecahydrocyclopropa[e]pyrrolo[1,2-a][1,4]diazacyclopentadecin-6-yl)carbamate]", "values": [
      {"measurement": "EC50", "setting": "[1]; [3]", "result": "< 5.46", "unit": "nM"},
      {"measurement": "EC50", "setting": "[2]; [4]", "result": "< 5.46", "unit": "nM"}
    ]},
    {"smiles": "CC[C@@H]1C[C@@H](C)CC/C=C\\[C@@H]2C[C@@]2(C(=O)NS(=O)(=O)C2(C)CC2)NC(=O)[C@@H]2C[C@@H](Oc3nccc4c5c(ccc34)OCCO5)CN2C(=O)[C@H]1NC(=O)OC(C)(C)C(F)(F)F", "note": "[Compound 5333, 1,1,1-trifluoro-2-methylpropan-2-yl((2R,6S,7R,9S,13aS,14aR,16aS,Z)-2-((2,3-dihydro-[1,4]dioxino[2,3-f]isoquinolin-7-yl)oxy)-7-ethyl-9-methyl-14a-(((1-methylcyclopropyl)sulfonyl)carbamoyl)-5,16-dioxo-1,2,3,5,6,7,8,9,10,11,13a,14,14a,15,16,16a-hexadecahydrocyclopropa[e]pyrrolo[1,2-a][1,4]diazacyclopentadecin-6-yl)carbamate]", "values": [
      {"measurement": "EC50", "setting": "[1]; [3]", "result": "4.82 to 103", "unit": "nM"},
      {"measurement": "EC50", "setting": "[2]; [4]", "result": "4.82 to 103", "unit": "nM"}
    ]},
    {"smiles": "CC[C@@H]1C[C@H](C)CC/C=C\\[C@@H]2C[C@@]2(C(=O)NS(=O)(=O)C2(C)CC2)NC(=O)[C@@H]2C[C@@H](Oc3nccc4c5c(ccc34)OCCO5)CN2C(=O)[C@H]1NC(=O)OC(C)(C)C(F)(F)F", "note": "[Compound 5334, 1,1,1-trifluoro-2-methylpropan-2-yl((2R,6S,7R,9R,13aS,14aR,16aS,Z)-2-((2,3-dihydro-[1,4]dioxino[2,3-f]isoquinolin-7-yl)oxy)-7-ethyl-9-methyl-14a-(((1-methylcyclopropyl)sulfonyl)carbamoyl)-5,16-dioxo-1,2,3,5,6,7,8,9,10,11,13a,14,14a,15,16,16a-hexadecahydrocyclopropa[e]pyrrolo[1,2-a][1,4]diazacyclopentadecin-6-yl)carbamate]", "values": [
      {"measurement": "EC50", "setting": "[1]; [3]", "result": "< 5.46", "unit": "nM"},
      {"measurement": "EC50", "setting": "[2]; [4]", "result": "< 5.46", "unit": "nM"}
    ]}
  ]
}
